Tests used:
johnsongrass = assay: Test C preemergence; type: in vivo, Sorghum halepense; conditions: Sorghum halepense, pre-emergence
Procedure, shortened: (§1)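 Visual injury score versus untreated controls, 0 = no effect, 100 = complete control, taken 13 to 15 days after treatment in the greenhouse. Pre-emergence pots held loam/sand; post-emergence plants grew in sphagnum peat/vermiculite mix and were sprayed at the 1- to 4-leaf stage.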

giant foxtail = assay: Test A preemergence; type: in vivo, Setaria faberii; conditions: Setaria faberi, pre-emergence, 240 h
Procedure, shortened: (§2)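 Visual 0–100 rating (100 = complete control) taken about 10 d post-treatment relative to untreated checks. Preemergence: directed soil spray on sown loam/sand pots. Postemergence: seedlings 2–10 cm, 1–2 leaf. Non-phytotoxic solvent formulation with surfactant.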

velvetleaf [1] = assay: Test A preemergence; type: in vivo, Abutilon theophrasti
Procedure, shortened: as §2

corn = assay: Test C postemergence; type: in vivo, Zea mays; conditions: Zea mays, post-emergence
Procedure, shortened: as §1

Heteranthera limosa = assay: Test B flooded paddy test; type: in vivo; conditions: Heteranthera limosa, Flood, 250 g ai/ha; 0 to 100 scale where 0 is no effect and 100 is complete control; read-out: Plant response rating, Ducksalad
Procedure, shortened: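 2-leaf stage plants; pots flooded to 3 cm, compound added to paddy water, depth maintained. Greenhouse 13–15 d. Visual rating vs untreated controls, 0 (no effect) to 100 (complete control); dash = no result.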

large (Lg) crabgrass [2] = assay: Test A preemergence; type: in vivo, Digitaria sanguinalis; conditions: Digitaria sanguinalis, pre-emergence, 240 h
Procedure, shortened: as §2

chickweed = assay: Test C postemergence; type: in vivo, Stellaria media; conditions: Stellaria media, post-emergence
Procedure, shortened: as §1

velvetleaf [3] = assay: Test C preemergence; type: in vivo, Abutilon theophrasti; conditions: Abutilon theophrasti, pre-emergence
Procedure, shortened: as §1

Italian ryegrass = assay: Test C preemergence; type: in vivo, Lolium multiflorum; conditions: Lolium multiflorum, pre-emergence
Procedure, shortened: as §1

morningglory = assay: Test C preemergence; type: in vivo, Ipomoea coccinea; conditions: Ipomoea, pre-emergence
Procedure, shortened: as §1

wheat, winter = assay: Test C postemergence; type: in vivo, Triticum aestivum; conditions: Triticum aestivum, post-emergence
Procedure, shortened: as §1

galium = assay: Test C preemergence; type: in vivo, Galium aparine; conditions: Galium, pre-emergence
Procedure, shortened: as §1

pigweed = assay: Test A postemergence; type: in vivo, Amaranthus retroflexus; conditions: Amaranthus retroflexus, post-emergence
Procedure, shortened: as §2

large (Lg) crabgrass [4] = assay: Test C postemergence; type: in vivo, Digitaria sanguinalis; conditions: Digitaria sanguinalis, post-emergence
Procedure, shortened: as §1

oilseed rape = assay: Test C preemergence; type: in vivo, Brassica napus; conditions: Brassica napus, pre-emergence
Procedure, shortened: as §1

SMILES: N#Cc1cccc(Oc2ncc(Br)cn2)c1-n1cc(C(F)(F)F)cn1 [Compound 59, 3-[(5-bromo-2-pyrimidinyl)oxy]-2-[4-(trifluoromethyl)-1H-pyrazol-1-yl]benzonitrile]
- pest or weed control at 62 g/ha (johnsongrass; 62 g ai/ha, preemergence, scale 0 (no effect) to 100 (complete control), read-out: Johnsongrass plant response rating): 85%
- pest or weed control at 125 g/ha (johnsongrass; 125 g ai/ha, preemergence, scale 0 (no effect) to 100 (complete control), read-out: Johnsongrass plant response rating): 98%
- pest or weed control at 250 g/ha (johnsongrass; 250 g ai/ha, preemergence, scale 0 (no effect) to 100 (complete control), read-out: Johnsongrass plant response rating): 100%
- pest or weed control at 31 g/ha (johnsongrass; Preemergence, 31 g ai/ha, scale 0 to 100, 0 no effect, 100 complete control, read-out: Plant response rating, Johnsongrass): 60%
- pest or weed control at 125 g/ha (giant foxtail; 125 g ai/ha, 0 to 100 scale where 0 is no effect and 100 is complete control, read-out: Plant response rating, Foxtail, Giant): 100%
- pest or weed control at 500 g/ha (giant foxtail; 500 g ai/ha, 0 to 100 scale, 0 no effect, 100 complete control, approx. 10 days, read-out: Foxtail, Giant plant response rating): 100%
- Plant response rating, Velvetleaf (velvetleaf [1]; 125 g ai/ha, 0 to 100 scale where 0 is no effect and 100 is complete control): 100
- pest or weed control at 500 g/ha (velvetleaf [1]; Abutilon theophrasti, pre-emergence, 240 h, 500 g ai/ha, 0 to 100 scale, 0 no effect, 100 complete control, approx. 10 days, read-out: Velvetleaf plant response rating): 100%
- plant injury at 125 g/ha (corn; 125 g ai/ha, postemergence, read-out: Plant response rating (0 to 100), Corn): 15%
- plant injury at 250 g/ha (corn; 250 g ai/ha, postemergence, read-out: Plant response rating (0 to 100), Corn): 20%
- Corn plant response rating (crop injury, 0 = no effect, 100 = complete kill) at 31 g/ha (corn; Postemergence, 31 g ai/ha, scale 0 to 100 (0 no effect, 100 complete control), 13 to 15 days): 10%
- Corn plant response rating (crop injury, 0 = no effect, 100 = complete kill) at 62 g/ha (corn; Postemergence, 62 g ai/ha, scale 0 to 100 (0 no effect, 100 complete control)): 15%
- pest or weed control at 250 g/ha (Heteranthera limosa): 80%
- pest or weed control at 125 g/ha (large (Lg) crabgrass [2]; 125 g ai/ha, 0 to 100 scale where 0 is no effect and 100 is complete control, read-out: Plant response rating, Crabgrass, Large): 100%
- pest or weed control at 500 g/ha (large (Lg) crabgrass [2]; 500 g ai/ha, 0 to 100 scale, 0 no effect, 100 complete control, approx. 10 days, read-out: Crabgrass, Large plant response rating): 100%
- pest or weed control at 125 g/ha (chickweed; 125 g ai/ha, postemergence, read-out: Plant response rating (0 to 100), Chickweed): 80%
- pest or weed control at 250 g/ha (chickweed; 250 g ai/ha, postemergence, read-out: Plant response rating (0 to 100), Chickweed): 98%
- pest or weed control at 31 g/ha (chickweed; Postemergence, 31 g ai/ha, scale 0 to 100 (0 no effect, 100 complete control), 13 to 15 days, read-out: Plant response rating, Chickweed): 40%
- pest or weed control at 62 g/ha (chickweed; Postemergence, 62 g ai/ha, scale 0 to 100 (0 no effect, 100 complete control), read-out: Plant response rating, Chickweed): 70%
- pest or weed control at 62 g/ha (velvetleaf [3]; 62 g ai/ha, preemergence, scale 0 (no effect) to 100 (complete control), read-out: Velvetleaf plant response rating): 100%
- pest or weed control at 125 g/ha (velvetleaf [3]; 125 g ai/ha, preemergence, scale 0 (no effect) to 100 (complete control), read-out: Velvetleaf plant response rating): 100%
- pest or weed control at 250 g/ha (velvetleaf [3]; 250 g ai/ha, preemergence, scale 0 (no effect) to 100 (complete control), read-out: Velvetleaf plant response rating): 100%
- pest or weed control at 31 g/ha (velvetleaf [3]; Preemergence, 31 g ai/ha, scale 0 to 100, 0 no effect, 100 complete control, read-out: Plant response rating, Velvetleaf): 100%
- pest or weed control at 62 g/ha (Italian ryegrass; 62 g ai/ha, preemergence, scale 0 (no effect) to 100 (complete control), read-out: Ryegrass, Italian plant response rating): 85%
- pest or weed control at 125 g/ha (Italian ryegrass; 125 g ai/ha, preemergence, scale 0 (no effect) to 100 (complete control), read-out: Ryegrass, Italian plant response rating): 90%
- pest or weed control at 250 g/ha (Italian ryegrass; 250 g ai/ha, preemergence, scale 0 (no effect) to 100 (complete control), read-out: Ryegrass, Italian plant response rating): 90%
- pest or weed control at 31 g/ha (Italian ryegrass; Preemergence, 31 g ai/ha, scale 0 to 100, 0 no effect, 100 complete control, read-out: Plant response rating, Ryegrass, Italian): 50%
- pest or weed control at 62 g/ha (morningglory; 62 g ai/ha, preemergence, scale 0 (no effect) to 100 (complete control), read-out: Morningglory plant response rating): 100%
- pest or weed control at 125 g/ha (morningglory; 125 g ai/ha, preemergence, scale 0 (no effect) to 100 (complete control), read-out: Morningglory plant response rating): 100%
- pest or weed control at 250 g/ha (morningglory; 250 g ai/ha, preemergence, scale 0 (no effect) to 100 (complete control), read-out: Morningglory plant response rating): 100%
- pest or weed control at 31 g/ha (morningglory; Preemergence, 31 g ai/ha, scale 0 to 100, 0 no effect, 100 complete control, read-out: Plant response rating, Morningglory): 95%
- plant injury at 125 g/ha (wheat, winter; 125 g ai/ha, postemergence, read-out: Plant response rating (0 to 100), Wheat): 20%
- plant injury at 250 g/ha (wheat, winter; 250 g ai/ha, postemergence, read-out: Plant response rating (0 to 100), Wheat): 20%
- plant injury at 31 g/ha (wheat, winter; Postemergence, 31 g ai/ha, scale 0 to 100 (0 no effect, 100 complete control), 13 to 15 days, read-out: Plant response rating, Wheat): 5%
- plant injury at 62 g/ha (wheat, winter; Postemergence, 62 g ai/ha, scale 0 to 100 (0 no effect, 100 complete control), read-out: Plant response rating, Wheat): 5%
- pest or weed control at 62 g/ha (galium; 62 g ai/ha, preemergence, scale 0 (no effect) to 100 (complete control), read-out: Galium plant response rating): 100%
- pest or weed control at 125 g/ha (galium; 125 g ai/ha, preemergence, scale 0 (no effect) to 100 (complete control), read-out: Galium plant response rating): 100%
- pest or weed control at 250 g/ha (galium; 250 g ai/ha, preemergence, scale 0 (no effect) to 100 (complete control), read-out: Galium plant response rating): 100%
- pest or weed control at 31 g/ha (galium; Preemergence, 31 g ai/ha, scale 0 to 100, 0 no effect, 100 complete control, read-out: Plant response rating, Galium): 100%
- pest or weed control at 125 g/ha (pigweed; 125 g ai/ha, 0 to 100 scale where 0 is no effect and 100 is complete control, read-out: Plant response rating, Pigweed): 100%
- pest or weed control at 500 g/ha (pigweed; 240 h, 500 g ai/ha, 0 to 100 scale, 0 no effect, 100 complete control, read-out: Plant response rating Pigweed): 100%
- pest or weed control at 125 g/ha (large (Lg) crabgrass [4]; 125 g ai/ha, postemergence, read-out: Plant response rating (0 to 100), Crabgrass, Large): 30%
- pest or weed control at 250 g/ha (large (Lg) crabgrass [4]; 250 g ai/ha, postemergence, read-out: Plant response rating (0 to 100), Crabgrass, Large): 40%
- pest or weed control at 31 g/ha (large (Lg) crabgrass [4]; Postemergence, 31 g ai/ha, scale 0 to 100 (0 no effect, 100 complete control), 13 to 15 days, read-out: Plant response rating, Crabgrass, Large): 10%
- pest or weed control at 62 g/ha (large (Lg) crabgrass [4]; Postemergence, 62 g ai/ha, scale 0 to 100 (0 no effect, 100 complete control), read-out: Plant response rating, Crabgrass, Large): 10%
- plant injury at 62 g/ha (oilseed rape; 62 g ai/ha, preemergence, scale 0 (no effect) to 100 (complete control), read-out: Oilseed Rape plant response rating): 100%
- plant injury at 125 g/ha (oilseed rape; 125 g ai/ha, preemergence, scale 0 (no effect) to 100 (complete control), read-out: Oilseed Rape plant response rating): 100%
- plant injury at 250 g/ha (oilseed rape; 250 g ai/ha, preemergence, scale 0 (no effect) to 100 (complete control), read-out: Oilseed Rape plant response rating): 100%
- plant injury at 31 g/ha (oilseed rape; Preemergence, 31 g ai/ha, scale 0 to 100, 0 no effect, 100 complete control, read-out: Plant response rating, Oilseed Rape): 90%

Reference: US9695155B2, “Herbicidal substituted pyrimidinyloxy benzene compounds” (E. I. DU PONT DE NEMOURS AND COMPANY, priority 2013, dated 2017)
